The values below come from ChEMBL document CHEMBL4396933, “Design, synthesis and biological evaluation of 3,5-dimethylisoxazole and pyridone derivatives as BRD4 inhibitors” (Bioorg Med Chem Lett, 2019).

The target of series [1] is T1, Bromodomain-containing protein 4 (Homo sapiens, UniProt O60885). Briefly: Inhibition of BRD4 (unknown origin) at 1 uM relative to control.
In series [2] the test system is MV4-11. The experiment in a line: Antiproliferative activity against human MV4-11 cells assessed as reduction in cell viability incubated for 72 hrs by CellTiter-Glo luminescent cell viability assay. The note with it: MV4-11, 72 h. It is filed as functional, cell-based.
Series [3] addresses T1, Bromodomain-containing protein 4. Briefly: Inhibition of BRD4 bromodomain 1/2 (unknown origin) by alphascreen assay.
The test system of another series is HCT-116. Briefly: Antiproliferative activity against human HCT116 cells. It is filed as functional, cell-based.
A further series relates to SW480. The experiment in a line: Antiproliferative activity against human SW480 cells. It is filed as functional, cell-based.
For a further series, the system named is DU-145. The experiment in a line: Antiproliferative activity against human DU145 cells. It is filed as functional, cell-based.
The subject of the next series is CAPAN-1. The experiment in a line: Antiproliferative activity against human Capan1 cells. It is filed as functional, cell-based.
A further series concerns BT-474. The experiment in a line: Antiproliferative activity against human BT474 cells. It is filed as functional, cell-based.
A further series relates to L02. The experiment in a line: Cytotoxicity against human LO2 cells at 0.5 to 40 uM incubated for 72 hrs by MTT assay. The conditions noted are these: l02, 72 h. It is filed as cell-based. In general terms: Tetrazolium dyes change colour on reduction, which living cells bring about.
The target of series [4] is T1, Bromodomain-containing protein 4. The experiment in a line: Inhibition of BRD4 in human MV4-11 cells assessed as downregulation of c-Myc protein expression incubated for 48 hrs by Western blot method. It is filed as cell-based. Background: In western blotting, separated proteins are transferred to a membrane and probed.
In series [5] the test system is MV4-11. The experiment in a line: Induction of cell cycle arrest in human MV4-11 cells assessed as increase in accumulation at G0/G1 phase incubated for 48 hrs by PI staining based flow cytometric analysis. It is filed as functional. (In general: A flow cytometer gives signals particle by particle.)

On to `COc1ccc(Nc2nn(Cc3ccc(C)cc3)c3cc(-c4c(C)noc4C)ccc23)cc1`, for which the inhibition in series [1] is < 20%. Moreover, in the series on MV4-11 [2], the IC50 amounted to 11900 nM.
Take `Cc1ccc(Cn2nc(Nc3ccc(C(F)(F)F)cc3)c3ccc(-c4c(C)noc4C)cc32)cc1`: the inhibition in [1] was < 20%.
For the compound `CCOC(=O)Cn1ncc2ccc(-c3cc(NC)c(=O)n(C)c3)cc21`, the IC50 in the series with MV4-11 [2] worked out at 8770 nM; in series [3], 1900 nM.
Taken in the same sequence, the figures for `CCNc1cc(-c2ccc3cnn(Cc4ccc(F)cc4)c3c2)cn(C)c1=O` were 5650 nM and 2250 nM.
In the case of `Cc1noc(C)c1-c1ccc2c(Nc3ccc(F)cc3)n[nH]c2c1`, the inhibition in series [1] is < 20%. Also, the IC50 in the series on MV4-11 [2] was 7800 nM.
On to `Cc1ccc(Cn2nc(Nc3ccc(F)cc3)c3ccc(-c4c(C)noc4C)cc32)cc1`, for which the inhibition in [1] is < 20%.
As to `Cc1sc2c(c1C)C(c1ccc(Cl)cc1)=N[C@@H](CC(=O)OC(C)(C)C)c1nnc(C)n1-2`, the 50% inhibitory concentration (IC50) was 60 to 90 nM in the series with MV4-11 [2]; 400 nM in the series with HCT-116; 14100 nM in the series on SW480; 200 nM in the series with DU-145; 800 nM in the series with CAPAN-1; 1700 nM in the series on BT-474.
As for `CNc1cc(-c2ccc3cnn(Cc4ccc(C(F)(F)F)cc4)c3c2)cn(C)c1=O`, the values for the IC50 (with MV4-11 [2]; in series [3]) were 4370 nM and 2400 nM, respectively.
As for `COc1ccc(C)c(C2CN(Cc3ccc(F)cc3)c3nc(-c4c(C)noc4C)ncc32)c1` (centres undefined), the inhibition in [1] is < 20%.
Take `COc1cc(F)ccc1Nc1nn(C2CCCCO2)c2ccc(-c3c(C)noc3C)cc12` (centres undefined): in series [1], the inhibition is < 20%. Also, the half-inhibitory concentration (IC50) in the series with MV4-11 [2] stood at 17500 nM.
Regarding `Cc1noc(C)c1-c1ccc(-n2ncc3ccc(-c4c(C)noc4C)cc32)c(Cl)c1`, in [1], the inhibition turned out to be 33%. Further, in the series with MV4-11 [2], the IC50 was 2800 nM.
Consider `CNc1cc(-c2ccc3cnn(Cc4ccc(C)cc4)c3c2)cn(C)c1=O`, for which the 50% inhibitory concentration (IC50) with MV4-11 [2] was 3280 nM; in [3], 1600 nM.
As for `COc1cc(F)ccc1Nc1nn(C2CCCCO2)c2cc(-c3c(C)noc3C)ccc12` (centres undefined), the inhibition in series [1] is < 20%. In addition, in the series with MV4-11 [2], the IC50 came out at 8500 nM.
For the compound `Cc1noc(C)c1-c1ccc2c(Nc3ccc(F)cc3)nn(C3CCCCO3)c2c1` (centres undefined), the inhibition in series [1] was < 20%. Also, the IC50 with MV4-11 [2] is 9900 nM.
Taken in the same sequence, the figures for `COc1cc(Nc2nn(C3CCCCO3)c3cc(-c4c(C)noc4C)ccc23)ccc1F` (centres undefined) were < 20% and 9300 nM.
For the compound `COc1ccc(CN2CC(c3ccc(O)cc3)c3cnc(-c4c(C)noc4C)nc32)cc1` (centres undefined), the inhibition in series [1] is < 20%.
On the same count and under the same terms, then `Cc1noc(C)c1-c1ccc2c(c1)c(Nc1ccc(F)cc1)nn2C1CCCCO1` (centres undefined), with < 20%.
With `COc1ccc(Cn2nc(Nc3ccc(F)cc3)c3ccc(-c4c(C)noc4C)cc32)cc1`, the inhibition in series [1] is < 20%. In addition, in the series on MV4-11 [2], the IC50 stood at 9100 nM.
In the case of `CNc1cc(-c2ccc3cnn(Cc4ccc(OC)cc4)c3c2)cn(C)c1=O`, the IC50 with MV4-11 [2] was determined as 2700 nM; in [3], 1600 nM.
Taken in the same sequence, the figures for `CNc1cc(-c2ccc3cnn(CC4CC4)c3c2)cn(C)c1=O` were 3450 nM and 1960 nM.
On to `Cc1noc(C)c1-c1ccc2c(Nc3ccc(Cl)cc3)nn(C3CCCCO3)c2c1` (centres undefined), for which the inhibition in series [1] was < 20%. In addition, the IC50 in the series with MV4-11 [2] worked out at 7400 nM.
For `CCNc1cc(-c2ccc3cnn(Cc4cc(OC)cc(OC)c4)c3c2)cn(C)c1=O`, the results for the IC50 (with MV4-11 [2]; in [3]) were 2590 nM and 1810 nM, respectively.
Regarding `CNc1cc(-c2ccc3cnn(Cc4ccc(F)c([N+](=O)[O-])c4)c3c2)cn(C)c1=O`, the IC50 was found to be 130 nM in the series on MV4-11 [2]; 800 nM in series [3]; 2600 nM in the series with HCT-116; 10100 nM in the series with SW480; 3400 nM in the series on DU-145; 4000 nM in the series with CAPAN-1. Further, the half-maximal inhibitory concentration (IC50) with BT-474 turned out to be 6500 nM.
Turning to `CNc1cc(-c2ccc3cnn(Cc4cc(OC)cc(OC)c4)c3c2)cn(C)c1=O`, the IC50 with MV4-11 [2] is 190 to 200 nM; in series [3], 550 nM; in the series on HCT-116 it was 2900 nM; in the series with SW480, 7400 nM; in the series with DU-145, 2600 nM; in the series with CAPAN-1, 3800 nM. The IC50 with BT-474 was determined as 8600 nM.
For `COc1ccc(Cn2nc(Nc3cccc(C(C)C)c3)c3ccc(-c4c(C)noc4C)cc32)cc1`, the inhibition in [1] was < 20%. Besides, the half-maximal inhibitory concentration (IC50) with MV4-11 [2] amounted to 8100 nM.
In turn, `COc1cc2cnn(Cc3ccc(F)cc3)c2cc1-c1c(C)noc1C` showed an inhibition in series [1] of 45%. For the same compound, the IC50 in the series on MV4-11 [2] is 1900 nM.
As to `CNc1cc(-c2ccc3cnn(CC4CCCCC4)c3c2)cn(C)c1=O`, the IC50 turned out to be 2690 nM in the series on MV4-11 [2] and 1810 nM in series [3].
For `CNc1cc(-c2ccc3cnn(Cc4ccc(F)cc4)c3c2)cn(C)c1=O` the same measures were 2390 nM and 1400 nM.
Take `Cc1ccc(Cn2nc(Nc3ccc(C#N)cc3)c3ccc(-c4c(C)noc4C)cc32)cc1`: the inhibition in series [1] was < 20%. Besides, in the series on MV4-11 [2], the IC50 amounted to 5800 nM.
For the compound `CNc1cc(-c2ccc3cnn(Cc4ccc(F)c(F)c4)c3c2)cn(C)c1=O`, the IC50 in the series with MV4-11 [2] was 320 nM; in series [3] it was 860 nM; in the series on HCT-116 it was 3000 nM; in the series with SW480, 8400 nM; in the series on DU-145, 4800 nM; in the series on CAPAN-1, 3700 nM. This compound had an IC50 with BT-474 of 8800 nM. The Activity result is “Non-Toxic” in the series on L02 and “Dose-dependent effect” in the series on MV4-11 [5]. Also, in series [4], the inhibition entry is “Dose-dependent effect”.
For `CNc1cc(-c2ccc3cnn(Cc4ccc(OC)c(F)c4)c3c2)cn(C)c1=O`, the values for the IC50 (in the series with MV4-11 [2]; in [3]) were 4980 nM and 1400 nM, respectively.

By inhibition is commonly meant the share of the control response that was lost under treatment. For orientation: IC50 means the concentration at which inhibition is half-maximal.
